In patent US10085986B2, “Pyrimidinone compounds and their use” (Takeda Pharmaceutical Company Limited, priority 2011, dated 2018):

Molecular target: Human DAAO Enzyme (Homo sapiens (Human), UniProt P14920)
Test: In vitro DAAO enzyme assay (Amplex Red detection of H2O2 from D-Serine)
Assay type: biochemical
Conditions: inhibition of DAAO activity in the presence of 10 mM D-Serine; 60 minutes at 25° C.
Description: The functional activity of compounds inhibiting the DAAO enzyme was determined by utilizing the co-product of the catalysis of D-Serine, H2O2 which can be quantitatively measured using the Amplex Red (Invitrogen) detection. Amplex® Red reagent is a colorless substrate that reacts with hydrogen peroxide (H2O2) with a 1:1 stoichiometry in the presence of […] to produce highly fluorescent resorufin (excitationemission maxima=570/585 nm). The changes in fluorescence were monitored by a fluorescence plate reader, Envision (Perkin Elmer) and increases in DAAO activity were readily detected upon addition of D-Serine and suppression of this response observed with the application of test compounds.
The Km of D-Serine was measured for each enzyme batch to maintain consistency; this Km was used in subsequent assays.
On the day of the assay compounds were serially diluted in DMSO before being diluted 1:20 with assay buffer (20 mM Tris ph 7.4). A 5 μl portion of assay buffer was added to the wells of a 384 clear base black walled plate (Corning), 5 μl of diluted compound was then added via automated plate to plate transfer using the Bravo liquid handler (Agilent technologies) followed by 5 μl of human DAAO enzyme and then 5 μl D-Serine 50 mM was added to all but the negative control wells (final concentration of 10 mM). Finally 5 μl Amplex red reagent (Invitrogen) was added to all wells as per manufacturer's protocol. The plate was incubated for 60 minutes in the dark at 25° C. and the fluorescence in each well was measured in the Envision plate reader.
The IC50 values for compounds were determined from ten point half log scale dose-response studies and represent the concentration of compound required to […] 50% inhibition of DAAO activity in the presence of 10 mM D-Serine. Concentration response curves were generated using the average of duplicate wells for each data point and analyzed using nonlinear regression and four parameter curve fit.

Sequence of Human DAAO Enzyme (P14920 whole entry): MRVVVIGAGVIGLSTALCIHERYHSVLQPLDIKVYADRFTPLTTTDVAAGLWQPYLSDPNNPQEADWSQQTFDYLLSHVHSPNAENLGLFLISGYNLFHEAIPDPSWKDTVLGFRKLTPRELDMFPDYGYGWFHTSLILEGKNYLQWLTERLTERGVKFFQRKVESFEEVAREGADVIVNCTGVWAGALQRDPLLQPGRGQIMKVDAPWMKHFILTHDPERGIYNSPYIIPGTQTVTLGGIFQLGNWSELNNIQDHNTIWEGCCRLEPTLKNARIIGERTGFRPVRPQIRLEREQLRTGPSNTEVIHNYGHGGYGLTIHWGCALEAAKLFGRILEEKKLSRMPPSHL

| IC50 [nM] | SMILES |
| --- | --- |
| 120 | O=c1[nH]c(SCc2cccc(Cl)c2)ncc1O [Example 1, 2-(3-Chlorobenzylthio)-5-hydroxypyrimidin-4(3H)-one] |
| 230 | O=c1[nH]c(SCc2ccccc2)ncc1O [Example 2, 2-(Benzylsulfanyl)-5-hydroxypyrimidin-4(3H)-one] |
| 220 | O=c1[nH]c(SCc2ccc(Cl)cc2)ncc1O [Example 4, 2-[(4-Chlorobenzyl)sulfanyl]-5-hydroxypyrimidin-4(3H)-one] |
| 120 | O=c1[nH]c(SCc2ccc3ccccc3c2)ncc1O [Example 5, 5-Hydroxy-2-[(naphthalen-2-ylmethyl)sulfanyl]pyrimidin-4(3H)-one] |
| 170 | O=c1[nH]c(SCc2cccc(F)c2)ncc1O [Example 6, 2-[(3-Fluorobenzyl)sulfanyl]-5-hydroxypyrimidin-4(3H)-one] |
| 160 | COc1cccc(CSc2ncc(O)c(=O)[nH]2)c1 [Example 9, 5-Hydroxy-2-[(3-methoxybenzyl)sulfanyl]pyrimidin-4(3H)-one] |
| 150 | O=c1[nH]c(SCc2cccc(C(F)(F)F)c2)ncc1O [Example 10, 5-Hydroxy-2-{[3-(trifluoromethyl)benzyl]sulfanyl}pyrimidin-4(3H)-one] |
| 150 | O=c1[nH]c(SCc2cc(F)cc(Cl)c2)ncc1O [Example 11, 2-[(3-Chloro-5-fluorobenzyl)sulfanyl]-5-hydroxypyrimidin-4(3H)-one] |
| 500 | Cc1nc(-c2cccc(CSc3ncc(O)c(=O)[nH]3)c2)no1 [Example 12, 5-Hydroxy-2-{[3-(5-methyl-1,2,4-oxadiazol-3-yl)benzyl]-sulfanyl}-pyrimidin-4(3H)-one] |
| 1200 | CC(Sc1ncc(O)c(=O)[nH]1)c1ccccc1 (stereo not shown) [Example 14, 5-Hydroxy-2-[(1-phenylethyl)sulfanyl]pyrimidin-4(3H)-one] |
| 540 | O=c1[nH]c(SCc2cccc3c2OCCO3)ncc1O [Example 16, 2-[(2,3-Dihydro-1,4-benzodioxin-5-ylmethyl)sulfanyl]-5-hydroxypyrimidin-4(3H)-one] |
| 190 | O=c1[nH]c(SCc2cccc(OC(F)F)c2)ncc1O [Example 18, 2-(3-(Difluoromethoxy)benzylthio)-5-hydroxypyrimidin-4(3H)-one] |
| 470 | O=c1[nH]c(SCc2cccnc2)ncc1O [Example 20, 5-Hydroxy-2-(pyridin-3-ylmethylthio)pyrimidin-4(3H)-one] |
| 1600 | Cc1cc(CSc2ncc(O)c(=O)[nH]2)n(C)n1 [Example 21, 2-((1,3-Dimethyl-1H-pyrazol-5-yl)methylthio)-5-hydroxypyrimidin-4(3H)-one] |
| 740 | O=c1[nH]c(SCc2ccc3nccn3c2)ncc1O [Example 26, 5-Hydroxy-2-[(imidazo[1,2-a]pyridin-6-ylmethyl)sulfanyl]-pyrimidin-4(3H)-one] |
| 2800 | O=c1[nH]c(CSc2ccccc2)ncc1O [Example 30, 5-Hydroxy-2-[(phenylsulfanyl)methyl]pyrimidin-4(3H)-one] |
| 3200 | O=c1[nH]c(COc2ccccc2)ncc1O [Example 31, 5-Hydroxy-2-(phenoxymethyl)pyrimidin-4(3H)-one] |
| 1200 | O=c1[nH]c(CCc2ccccc2)ncc1O [Example 33, 5-Hydroxy-2-(2-phenylethyl)pyrimidin-4(3H)-one] |
| 2700 | O=c1[nH]c(SCc2ccccc2)nc(C(F)(F)F)c1O [Example 34, 2-(Benzylsulfanyl)-5-hydroxy-6-(trifluoromethyl)pyrimidin-4(3H)-one] |
